“And” between values parts separate entries of the source, which are not always exact repeats. Identical values can stand only once.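 Exposure lasted 48 hours, with cells grown in 96-well plates and compounds tested at five concentrations. At the GI50, growth is halved. The concentration for full growth arrest is given as TGI.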

Some test systems named below: UO-31 renal; SR leukemia; PC-3 prostate; SF-295 CNS; M14 melanoma; SF-268 CNS; SNB-19 CNS; 786-0 renal; LOX IMVI melanoma; RXF 393 renal.
Holding throughout (assay): inhibition of tumour cell growth, NCI panel, 48 h

Turning to `CCCCCCCCCCCCCCCCOCC(O)CO` (stereo not given), the TGI in the assay on UO-31 renal is 32.4 µM; in the assay with SR leukemia, 28.5 µM; in the assay with PC-3 prostate it was 37.8 µM; in the assay with SF-295 CNS it was 30.3 µM; in the assay with M14 melanoma it was 58 µM; with SF-268 CNS it was 36 µM. Besides, the TGI was 52.4 µM in the assay with SNB-19 CNS, 32.8 µM in the assay with 786-0 renal, 33.4 µM with LOX IMVI melanoma and 35.7 µM in the assay with RXF 393 renal.

With `Cn1cc(-c2nc(N[C@@H]3CCCC[C@@H]3N)c(F)c3c2C(=O)NC3)cn1`, the GI50 with UO-31 renal is 5.74 µM and 7.49 µM; in the assay on SR leukemia it was 2.26 µM and 2.92 µM; in the assay with PC-3 prostate it was 9.43 µM and 13.3 µM; in the assay with SF-295 CNS, 3.95 µM and 3.5 µM; with M14 melanoma, 1.56 µM and 1.67 µM; in the assay on SF-268 CNS, 5.42 µM and 6.7 µM. In addition, the GI50 in the assay on SNB-19 CNS is 27.3 µM and 29 µM; in the assay on 786-0 renal, 3.99 µM and 6.36 µM; with LOX IMVI melanoma, 2.95 µM and 3.81 µM; in the assay with RXF 393 renal, 1.99 µM and 2.47 µM. The TGI with UO-31 renal is 19.7 µM and 21.1 µM; with SR leukemia, 31.9 µM and 36 µM; in the assay on PC-3 prostate, over 100 µM; with SF-295 CNS, over 77.2 µM; with M14 melanoma it was over 96.1 µM; in the assay with SF-268 CNS, over 100 µM. The TGI in the assay with SNB-19 CNS was over 100 µM; in the assay on 786-0 renal, 22.1 µM and > 52.4 µM; in the assay with LOX IMVI melanoma it was 14.1 µM and 16.2 µM; in the assay on RXF 393 renal it was 10.5 µM and 12.5 µM.

Regarding `NNC(=O)C(O)C(O)C(=O)NN` (stereo not given), the TGI in the assay on UO-31 renal, in the assay on SR leukemia, with PC-3 prostate, with SF-295 CNS, in the assay on M14 melanoma and in the assay on SF-268 CNS was over 100 µM each time. For the same compound, the TGI in the assay with SNB-19 CNS, with 786-0 renal, with LOX IMVI melanoma and in the assay with RXF 393 renal was over 100 µM throughout.

For the compound `COc1cc(Cn2c(-c3ccccc3)cc3c2-c2oncc2CC3)cc(OC)c1`, the GI50 is 0.665 µM in the assay on UO-31 renal; 0.308 µM with SR leukemia; 0.677 µM in the assay on PC-3 prostate; 0.209 µM in the assay on SF-295 CNS; 0.299 µM in the assay with M14 melanoma; 0.876 µM in the assay on SF-268 CNS. The GI50 with SNB-19 CNS was 0.562 µM; in the assay on 786-0 renal, 0.601 µM; in the assay on LOX IMVI melanoma, 0.757 µM; with RXF 393 renal, 0.296 µM. The TGI in the assay with UO-31 renal is over 100 µM; in the assay on SR leukemia it was over 40.7 µM; with PC-3 prostate it was over 100 µM; in the assay on SF-295 CNS it was 4.03 µM; in the assay on SF-268 CNS, over 100 µM; in the assay with SNB-19 CNS, over 100 µM. The TGI in the assay with 786-0 renal, in the assay on LOX IMVI melanoma and with RXF 393 renal was over 100 µM each time.

Turning to `COc1ccc(C(=O)c2cc3c(N)c(C(=O)Nc4cccc(OC)c4)sc3nc2C)cc1`, the GI50 is 1.14 µM in the assay with UO-31 renal; 0.203 µM in the assay on SR leukemia; 0.439 µM with PC-3 prostate; 0.601 µM in the assay on SF-295 CNS; 0.341 µM in the assay on M14 melanoma; 1.75 µM in the assay with SF-268 CNS. The GI50 is 0.513 µM in the assay with SNB-19 CNS, 0.713 µM in the assay on 786-0 renal, 0.676 µM with LOX IMVI melanoma and 0.323 µM in the assay on RXF 393 renal. Further, the TGI in the assay with UO-31 renal, in the assay on PC-3 prostate, in the assay with SF-295 CNS, with M14 melanoma, with SF-268 CNS and in the assay with SNB-19 CNS was over 100 µM each time. The TGI in the assay on 786-0 renal and with LOX IMVI melanoma was over 100 µM in each case.

As to `O=S(=O)(O)SCCNCCCCCC1CCCCC1`, the TGI in the assay on UO-31 renal was 29.8 µM; in the assay on SR leukemia, over 33.3 µM; in the assay on PC-3 prostate, 22.7 µM; with SF-295 CNS it was 16.4 µM; in the assay with M14 melanoma, 18.4 µM; in the assay with SF-268 CNS it was 23.5 µM. Also, the TGI in the assay on SNB-19 CNS was 10.8 µM; in the assay on 786-0 renal, 28 µM; with LOX IMVI melanoma it was 4.78 µM; with RXF 393 renal it was 38 µM.

For `O=Cc1ccc(N2CCN(c3ccc(C=O)cc3)CC2)cc1`, the GI50 in the assay with UO-31 renal, in the assay on SR leukemia, in the assay with PC-3 prostate, with SF-295 CNS, with M14 melanoma and in the assay on SF-268 CNS was over 100 µM each time. For the same compound, the GI50 in the assay with SNB-19 CNS is over 100 µM; in the assay on 786-0 renal, over 100 µM; with LOX IMVI melanoma, over 100 µM; in the assay on RXF 393 renal it was 67.2 µM. For the same compound, the TGI in the assay with UO-31 renal, in the assay with SR leukemia, in the assay with PC-3 prostate, with SF-295 CNS, with M14 melanoma and in the assay on SF-268 CNS was over 100 µM each time. For the same compound, the TGI with SNB-19 CNS, in the assay on 786-0 renal, with LOX IMVI melanoma and in the assay with RXF 393 renal was over 100 µM in each case.

Take `Cc1cc2nc3c4ccc(Br)cc4n(CCN(C)C)c3nc2cc1C`: the GI50 in the assay with UO-31 renal was 0.561 µM; in the assay on SR leukemia, 0.423 µM; in the assay on PC-3 prostate it was 1.51 µM; in the assay on SF-295 CNS it was 0.804 µM; in the assay with M14 melanoma, 1.55 µM; with SF-268 CNS, 2 µM. For the same compound, the GI50 with SNB-19 CNS was 1.6 µM; in the assay with 786-0 renal, 1.44 µM; in the assay on LOX IMVI melanoma it was 0.532 µM; in the assay on RXF 393 renal, 1.31 µM. Further, the TGI with UO-31 renal stood at 9.5 µM; in the assay on SR leukemia, 10 µM; in the assay with PC-3 prostate, 4.22 µM; with SF-295 CNS, 2.91 µM; in the assay with M14 melanoma, 3.39 µM; in the assay with SF-268 CNS, 6.24 µM. Moreover, the TGI was determined as 7.52 µM with SNB-19 CNS, 7.65 µM in the assay on 786-0 renal, 1.9 µM in the assay on LOX IMVI melanoma and 3.01 µM with RXF 393 renal.

Regarding `O=C(O)CCc1nc(-c2ccccc2-n2cccc2)no1`, the TGI in the assay with UO-31 renal, in the assay on SR leukemia, in the assay on PC-3 prostate, in the assay with SF-295 CNS, with M14 melanoma and in the assay on SF-268 CNS was over 100 µM each time. Besides, the TGI in the assay on SNB-19 CNS, in the assay with 786-0 renal, in the assay with LOX IMVI melanoma and in the assay with RXF 393 renal was over 100 µM throughout.

Consider `CC(/C=N/N=C(N)N)=N\N=C(N)N`, for which the GI50 in the assay on UO-31 renal is 11 µM; in the assay on SR leukemia, 1.95 µM; in the assay with PC-3 prostate it was 40.3 µM; with SF-268 CNS it was 23.1 µM; in the assay with SNB-19 CNS, 14.5 µM; in the assay with 786-0 renal it was 6.12 µM and 1.67 µM. Also, the GI50 in the assay with LOX IMVI melanoma is 29.9 µM; with RXF 393 renal, over 45.6 µM. Besides, the TGI in the assay with UO-31 renal turned out to be 552 µM; in the assay with SR leukemia, 333 µM; in the assay with PC-3 prostate it was 1300 µM; in the assay with SF-295 CNS, 856 µM; in the assay on M14 melanoma it was 425 µM; in the assay with SF-268 CNS, 92.4 µM. Besides, the TGI was 722 µM in the assay on SNB-19 CNS; > 83.6 µM and 19.7 µM with 786-0 renal; 202 µM in the assay on LOX IMVI melanoma; 734 µM with RXF 393 renal.

As for `O=C(CCCCCCCCC(=O)N/N=C\c1cc(Cl)ccc1O)N/N=C\c1cc(Cl)ccc1O`, the GI50 in the assay on UO-31 renal is 0.152 µM; with SR leukemia it was 0.0955 µM; in the assay on PC-3 prostate it was 0.864 µM; in the assay on SF-295 CNS it was 1.11 µM; in the assay on M14 melanoma, 0.221 µM; in the assay on SF-268 CNS it was 0.223 µM. Also, the GI50 in the assay on SNB-19 CNS was 0.813 µM; with 786-0 renal, 0.287 µM; with LOX IMVI melanoma, 0.149 µM; with RXF 393 renal it was 0.208 µM. Further, the TGI in the assay on UO-31 renal is over 100 µM; in the assay on SR leukemia, 16.7 µM; in the assay on PC-3 prostate it was over 100 µM; with SF-295 CNS it was over 46.5 µM; in the assay with M14 melanoma it was 8.69 µM; in the assay with SF-268 CNS, over 100 µM. The TGI was over 100 µM in the assay with SNB-19 CNS, 15.5 µM with 786-0 renal, 7.41 µM in the assay on LOX IMVI melanoma and 7.78 µM with RXF 393 renal.

As for `CC(N1CCOCC1)C(O)(c1ccccc1)c1ccccn1` (stereo not given), the TGI in the assay on UO-31 renal, in the assay on SR leukemia, with PC-3 prostate, in the assay with SF-295 CNS, in the assay on M14 melanoma and in the assay with SF-268 CNS was over 100 µM in each case. Moreover, the TGI with SNB-19 CNS, in the assay with 786-0 renal, with LOX IMVI melanoma and with RXF 393 renal was over 100 µM each time.

Take `COc1cc2c(cc1OCCCOc1ccc(-c3nc4ccc(N5CCN(C)CC5)cc4[nH]3)cc1)N=C[C@@H]1CCCN1C2=O`: the GI50 in the assay on SR leukemia, in the assay on PC-3 prostate, in the assay with SF-295 CNS, with M14 melanoma, with SF-268 CNS and with SNB-19 CNS was under 0.01 µM in each case. The GI50 with 786-0 renal, in the assay on LOX IMVI melanoma and in the assay on RXF 393 renal was under 0.01 µM each time. The TGI was under 0.01 µM in the assay on SR leukemia; under 0.01 µM in the assay on PC-3 prostate; under 0.0359 µM with SF-295 CNS; under 0.01 µM in the assay on M14 melanoma; 17.1 µM with SNB-19 CNS; 0.524 µM in the assay on 786-0 renal. For the same compound, the TGI in the assay with LOX IMVI melanoma is 1.58 µM; in the assay on RXF 393 renal, under 0.01 µM.

`Oc1ccc(Cl)cc1/C=N\NC(=S)N/N=C/c1cc(Cl)ccc1O`: the GI50 was 1.05 µM with UO-31 renal; 1.22 µM with SR leukemia; 3.13 µM in the assay with PC-3 prostate; 3 µM in the assay with SF-295 CNS; 1.72 µM with SF-268 CNS; 3.4 µM in the assay on SNB-19 CNS. For the same compound, the GI50 was 1.43 µM in the assay on 786-0 renal, 1.65 µM in the assay on LOX IMVI melanoma and 2.03 µM in the assay on RXF 393 renal. For the same compound, the TGI in the assay with UO-31 renal was 15.5 µM; with SR leukemia it was 40.9 µM; in the assay with PC-3 prostate, over 100 µM; in the assay with SF-295 CNS, over 100 µM; in the assay with SF-268 CNS, over 100 µM; in the assay with SNB-19 CNS, over 100 µM. For the same compound, the figures for the TGI in the assay on 786-0 renal, with LOX IMVI melanoma and in the assay with RXF 393 renal were 4.52 µM, over 100 µM and 6.83 µM, respectively.

The record behind these values is PubChem BioAssay (NCI).
